Assay [1] concerns Subjects With Active Crohn's Disease With Evidence of Mucosal Ulceration. Kind of assay: Study 3 - CRP levels (pharmacodynamics). Format: in vivo, human. The settings on record: 200 mg; week 10; LOCF. The text has this:
Double-Blind, Randomized, Placebo-Controlled, Multi-Centre Study to Investigate the Efficacy and Safety of Compound 1 in Subjects With Active Crohn's Disease With Evidence of Mucosal Ulceration. This is a double-blind, randomized, placebo-controlled, multi-centre Phase 2 study to investigate the efficacy and safety of Compound 1 administered once daily for the treatment of active CD with evidence of mucosal ulceration. The pharmacokinetics (including a PK substudy) and pharmacodynamics of Compound 1 and metabolite in CD will also be characterised. A total of 180 eligible subjects will be randomized to receive Compound 1 or placebo in addition to their stable background treatment (eg, corticosteroids, aminosalicylates, or CD-related antibiotics). The study will consist of 2 parts, with total treatment duration of 20 weeks. Randomization in Part 1 will be stratified according the subject's previous anti-TNF exposure/response, CRP level at Screening, and oral corticosteroid use at visit Day −1. After the first 10 weeks of treatment in Part 1, patients will be re-randomized for Part 2 as shown in the diagram below and will be stratified according to the subject's clinical response, previous anti-TNF exposure/response, and oral corticosteroid use at visit Day -1. [table] CRP determination is available at Quest Diagnostics, Clinical Trials, Quest House, 125-135 Staines Road, Hounslow, Middlesex, TW3 3JB, United Kingdom under Catalogue n#86140. The determination of CRP is made using Immunoturbidimetric assay for the in vitro quantitative determination of CRP in human serum and plasma on Roche/Hitachi cobas c systems, wherein human CRP agglutinates with latex particles coated with monoclonal anti-CRP antibodies. The aggregates are determined turbidimetrically (Eda et al., 1998; Price et al., 1987). Human serum and plasma samples CRP determination was done on a Roche/Hitachi Cobas c 301 c 501/502 system which automatically calculate the analyte concentration of each sample. Samples containing precipitates are centrifuged before performing the assay. CRP levels are determined as previously described in section 3.6

Assay [2] has as its system subjects with moderately to severely active RA who have an inadequate response to methotrexate (MTX). Kind of assay: Study 2 (monotherapy) - serum CRP values. Format: in vivo, human. The text has this:
Randomized, double-blind, placebo-controlled, multicenter, phase IIb dose finding study of Compound 1 (dosed as a [Compound 1:HCl:3H2O]) administered for 24 weeks as monotherapy to subjects with moderately to severely active rheumatoid arthritis who have an inadequate response to methotrexate alone
Double-blind, placebo-controlled, monotherapy study in subjects with moderately to severely active RA who have an inadequate response to methotrexate (MTX) (oral or parenteral).
280 subjects randomized to one of 3 doses of Compound 1 (dosed as a [Compound 1:HCl:3H2O]) or to placebo, given once daily (q.d.).
Twelve weeks of treatment with Compound 1 (dosed as a [Compound 1:HCl:3H2O]) at 50 mg, 100 mg, or 200 mg q.d.; or placebo. At Week 12, all subjects on placebo and the subjects on the 50 mg dose who have not achieved 20% improvement in swollen joint count (SJC66) and tender joint count (TJC68) will be assigned to 100 mg q.d. in a blinded fashion and will continue treatment until Week 24. Subjects in the other groups will maintain their randomized treatment until Week 24.
CRP determination is available at Quest Diagnostics, Clinical Trials, Quest House, 125-135 Staines Road, Hounslow, Middlesex, TW3 3JB, United Kingdom under Catalogue n#86140.
The determination of CRP is made using Immunoturbidimetric assay for the in vitro quantitative determination of CRP in human serum and plasma on Roche/Hitachi cobas c systems, wherein human CRP agglutinates with latex particles coated with monoclonal anti-CRP antibodies. The aggregates are determined turbidimetrically (Eda et al., 1998; Price et al., 1987).
Human serum and plasma samples CRP determination was done on a Roche/Hitachi Cobas c 301 c 501/502 system which automatically calculate the analyte concentration of each sample. Samples containing precipitates are centrifuged before performing the assay.
The machine parameters are listed in Table XCI and Table XCII below, and the results at 12 weeks v using either LOCF are shown in Table XCIII and below. The Hommel-corrected p-value for the pairwise comparisons of each group with placebo is shown.
The number of subjects (N) provided in each groups corresponds to the number of subjects starting the study in each group, and the CRP data reported below corresponds to the responding subjects continuing for the entire 24 weeks on their initial treatment course.

Regarding `O=C(Nc1nc2cccc(-c3ccc(CN4CCS(=O)(=O)CC4)cc3)n2n1)C1CC1` [Compound 1, cyclopropanecarboxylic acid {5-[4-(1,1-dioxo-thiomorpholin-4-ylmethyl)-phenyl]-[1,2,4]triazolo[1,5-a]pyridin-2-yl}-amide], the “Serum CRP mean, % CFB” value in assay [1] is recorded as 53%. The “Serum CRP mean, CFB” value in assay [1] is -1.0 mg/L. The “Serum CRP median, % CFB” value in assay [1] is listed as −10%. Moreover, the “Serum CRP median, CFB” value in assay [1] is -0.4 mg/L. In assay [1], the “Serum CRP normalizing high to normal (<0.80 mg/dL), % subjects normalizing” value was 27%. In addition, the “CRP mean CFB mg/L (LOCF)” value in assay [2] (50 mg q.d., week 1, 12 weeks results) is -3.70 mg/L; in assay [2] (50 mg q.d., week 2, 12 weeks results), -4.16 mg/L; in assay [2] (50 mg q.d., week 4, 12 weeks results), -9.46 mg/L; in assay [2] (50 mg q.d., week 12, 12 weeks results), -4.43 mg/L; in assay [2] (50 mg q.d., week 8, 12 weeks results), -11.16 mg/L; in assay [2] (100 mg q.d., week 1, 12 weeks results), -10.33 mg/L. For the same compound, the “CRP mean CFB mg/L (LOCF)” value in assay [2] (100 mg q.d., week 2, 12 weeks results) was -8.67 mg/L; in assay [2] (100 mg q.d., week 4, 12 weeks results), -12.08 mg/L; in assay [2] (100 mg q.d., week 12, 12 weeks results) it was -12.25 mg/L; in assay [2] (100 mg q.d., week 8, 12 weeks results), -14.17 mg/L; in assay [2] (200 mg q.d., week 1, 12 weeks results), -12.58 mg/L; in assay [2] (200 mg q.d., week 2, 12 weeks results), -13.28 mg/L. In addition, the “CRP mean CFB mg/L (LOCF)” value was -13.04 mg/L in assay [2] (200 mg q.d., week 4, 12 weeks results); -14.85 mg/L in assay [2] (200 mg q.d., week 12, 12 weeks results); -13.86 mg/L in assay [2] (200 mg q.d., week 8, 12 weeks results).
